Data published in patent publication US11680050B2, “Crystalline forms of ozanimod and ozanimod hydrochloride, and processes for preparation thereof” (RECEPTOS LLC, priority 2016, dated 2023).
In brackets after ≈: the same amount, converted by molar mass. Structures can show the parent of a compound that is named as a salt. Values belong to the molecule of their own block, whether it stands above or below them.

Assays:
Assay type in all cases: physicochemical
[1] = Hygroscopicity assessment by dynamic vapor sorption (DVS); conditions: for Hygroscopicity class according to the definition of hygroscopicity: Chinese Pharmacopoeia 2015, 25° C., 80% RH; for Weight gain under 80% RH: DVS, 25° C.
Experimental: Dynamic Vapor Sorption (DVS) is measured via an SMS (Surface Measurement Systems Ltd.) intrinsic DVS. Typical Parameters for DVS test are as follows:
Gas and flow rate: N2, 200 mL/min
RH range: 0% RH to 95% RH […]
Dynamic vapor sorption (DVS) was applied to test hygroscopicity of Form CS1 of ozanimod hydrochloride with about 10 mg of samples.
Description and definition of hygroscopicity (Chinese Pharmacopoeia 2015 edition appendix Drug hygroscopic test guidelines, test at 25° C.+/−1° C., 80% RH). • deliquescent: Sufficient water is absorbed to form a liquid; • very hygroscopic: Increase in mass is equal to or greater than 15 percent; • hygroscopic: Increase in mass is less than 15 percent and equal to or greater than 2 percent; • slightly hygroscopic: Increase in mass is less than 2 percent and equal to or greater than 0.2 percent. • non hygroscopic or almost non hygroscopic: Increase in mass is less than 0.2 percent.

[2] = Stability assessment in constant temperature and humidity chambers (HPLC purity, XRPD crystalline form); conditions: for 1 week purity % / 2 week purity % / 4 week purity %: HPLC; for Change of the crystalline form: XRPD; for Stability, overall conclusion of the storage test: after storage under all conditions tested for the form
Experimental: (§1) Three solid samples of Form CS1 were placed in constant temperature and humidity chambers at 25° C./60% RH, 40° C./75% RH and 60° C./75% RH for 4 weeks. XRPD was used to test the crystalline form at the end of week 4. HPLC was used to measure the chemical purity at the end of week 1, 2, and 4. The XRPD comparison result is shown in FIG. 31 (from top to bottom: XRPD pattern of Form CS1 before and after being stored under 25° C./60% RH, 40° C./75% RH and 60° C./75% RH for 4 weeks), and the results are shown in Table 20.
as §1, with “Four” for “Three”, “CS2” for “CS1”, “weeks and 80° C. for 1 week.” for “weeks.”, “32” for “31”, “weeks and 80° C. for 1 week),” for “weeks),”, “21.” for “20.”
as §1, with “Form CS3” for “Form CS1”, “comparison pattern” for “comparison result”, “FIG. 33” for “FIG. 31”, “Table 22.” for “Table 20.”
as §1, with “Form CS5” for “Form CS1”, “for 2” for “for 4”, “[…].” for “4. HPLC was used to measure the chemical purity at the end of week 1, 2, and 4.”, “comparison pattern” for “comparison result”, “FIG. 34” for “FIG. 31”, “Table 23.” for “Table 20.”
Two samples of Form CS6 were placed in constant temperature and humidity chambers at 25° C./60% RH and 40° C./75% RH for 4 weeks. XRPD was used to test the crystalline form at the end of week 4. HPLC was used to measure the chemical purity at the end of week 1, 2, and 4.The XRPD comparison result is shown in FIG. 35 (from top to bottom: XRPD pattern of Form CS6 before and after being stored under 25° C./60% RH and 40° C./75% RH for 4 weeks), and the results are shown in Table 24.
Four samples of Form CS1 of ozanimod hydrochloride were placed in constant temperature and humidity chambers at 25° C./60% RH, 40° C./75% RH and 60° C./75% RH for 4 weeks and 80° C. for 1 week. XRPD was used to test the crystalline form at the end of week 4. HPLC was used to measure the chemical purity at the end of week 1, 2, and 4. The XRPD comparison pattern is shown in FIG. 36 (from top to bottom: XRPD pattern of ozanimod hydrochloride Form CS1 before and after being stored under 25° C./60% RH, 40° C./75% RH and 60° C./75% RH for 4 weeks and 80° C. for 1 week), and the results are shown in Table 25.

[3] = Particle size distribution test (laser particle size analyzer, wet process); conditions: for MV, average particle size calculated by volume: dispersion medium Isopar G; for D10 / D50 (median diameter) / D90: volume distribution, Isopar G
Experimental: The particle size distribution test in the present disclosure is acquired by the S3500 laser particle size analyzer of Microtrac. Microtrac S3500 is equipped with the SDC (Sample Delivery Controller). The test is carried out by wet process, and the dispersion medium is Isopar G The parameters are as follow:
Certain amount of samples of Form CS1, Form CS2, Form CS3, Form CS5, Form CS6 of ozanimod and Form CS1 of ozanimod hydrochloride were taken for particle size distribution test.

[4] = Solubility assessment of saturated solutions in SGF, FeSSIF and water, measured by HPLC
Experimental: Form CS1 and Form CS1 of ozanimod hydrochloride were suspended into SGF (Simulated gastric fluids) and FeSSIF (Fed state simulated intestinal fluids, pH=5.0) to obtain saturated solutions. After being equilibrated for 1 h, 4 h and 24 h, concentrations of the saturated solutions were measured by HPLC.
Form CS3 and Form CS5 were suspended into SGF (Simulated gastric fluids) and water, and Form CS2 was suspended into FeSSIF (Fed state simulated intestinal fluids) to obtain saturated solutions. After being equilibrated for 1 h, 4 h and 24 h, concentrations of the saturated solutions were measured by HPLC.

[5] = Mechanical stability, manual grinding for 5 minutes in mortar, XRPD; conditions: ground manually for 5 minutes, XRPD before and after
Experimental: Solid samples of Form CS3, Form CS5, Form CS6 of ozanimod and Form CS1 of ozanimod hydrochloride were ground manually for 5 minutes in mortar.

Weight gain under 80% RH ([1]; hydrochloride): 0.55% | Weight gain under 80% RH ([1]; listed as ozanimod hydrochloride Form CS1, hydrochloride): 0.55% | 1 week purity % ([2]; 25° C./60% RH, 1 week, hydrochloride): 99.18% | 2 week purity % ([2]; 25° C./60% RH, 2 weeks, hydrochloride): 99.13% | 4 week purity % ([2]; 25° C./60% RH, 4 weeks, hydrochloride): 99.22% | Change of the crystalline form ([2]; 25° C./60% RH, 4 weeks): No change | 1 week purity % ([2]; 40° C./75% RH, 1 week, hydrochloride): 99.15% | 2 week purity % ([2]; 40° C./75% RH, 2 weeks, hydrochloride): 99.12% | 4 week purity % ([2]; 40° C./75% RH, 4 weeks, hydrochloride): 99.24% | Change of the crystalline form ([2]; 40° C./75% RH, 4 weeks): No change | 1 week purity % ([2]; 60° C./75% RH, 1 week, hydrochloride): 99.25% | 2 week purity % ([2]; 60° C./75% RH, 2 weeks, hydrochloride): 99.25% | 4 week purity % ([2]; 60° C./75% RH, 4 weeks, hydrochloride): 99.36% | Change of the crystalline form ([2]; 60° C./75% RH, 4 weeks): No change | 1 week purity % ([2]; 80° C., 1 week, hydrochloride): 99.34% | Change of the crystalline form ([2]; 80° C., 1 week): No change | Stability, overall conclusion of the storage test [2]: good stability | MV, average particle size calculated by volume ([3]; hydrochloride): 200.7 μm | D10 ([3]; hydrochloride): 20.84 μm | D50 (median diameter) ([3]; hydrochloride): 180.8 μm | D90 ([3]; hydrochloride): 397.7 μm | Solubility ([4]; FeSSIF (pH=5.0), 4 h, hydrochloride): 1500 µg/mL | Form change under mechanical stress [5]: No form change
Compound: CC(C)Oc1ccc(-c2nc(-c3cccc4c3CC[C@@H]4NCCO)no2)cc1C#N [Form CS1 of ozanimod hydrochloride, ozanimod hydrochloride]
Hygroscopicity class according to the definition of hygroscopicity [1]: slightly hygroscopic (Increase in mass is less than 2 percent and equal to or greater than 0.2 percent)

Weight gain under 80% RH [1]: 2.25% | 1 week purity % ([2]; 25° C./60% RH, 1 week): 99.53% | 2 week purity % ([2]; 25° C./60% RH, 2 weeks): 99.30% | 4 week purity % ([2]; 25° C./60% RH, 4 weeks): 99.31% | Change of the crystalline form ([2]; 25° C./60% RH, 4 weeks): No change | 1 week purity % ([2]; 40° C./75% RH, 1 week): 99.52% | 2 week purity % ([2]; 40° C./75% RH, 2 weeks): 99.28% | 4 week purity % ([2]; 40° C./75% RH, 4 weeks): 99.17% | Change of the crystalline form ([2]; 40° C./75% RH, 4 weeks): No change | 1 week purity % ([2]; 60° C./75% RH, 1 week): 99.36% | 2 week purity % ([2]; 60° C./75% RH, 2 weeks): 98.84% | 4 week purity % ([2]; 60° C./75% RH, 4 weeks): 98.54% | Change of the crystalline form ([2]; 60° C./75% RH, 4 weeks): No change | Stability, overall conclusion of the storage test [2]: good stability | MV, average particle size calculated by volume [3]: 66.62 μm | D10 [3]: 20.36 μm | D50 (median diameter) [3]: 51.80 μm | D90 [3]: 130.8 μm | Solubility ([4]; SGF, 1 h): 540 µg/mL (≈ 1340 µM) | Solubility ([4]; SGF, 4 h): 520 µg/mL (≈ 1290 µM) | Solubility ([4]; SGF, 24 h): 540 µg/mL (≈ 1340 µM) | solubility at 1 h ([4]; water, thermodynamic from solid, H2O, 1 h): 170 µg/mL (≈ 420 µM) | solubility at 24 h ([4]; water, thermodynamic from solid, H2O, 24 h): 350 µg/mL (≈ 865 µM) | Form change under mechanical stress [5]: No form change
Compound: CC(C)Oc1ccc(-c2nc(-c3cccc4c3CC[C@@H]4NCCO)no2)cc1C#N [Form CS3, ozanimod]

Weight gain under 80% RH [1]: 0.23% | Change of the crystalline form ([2]; 25° C./60% RH, 2 weeks): No change | Change of the crystalline form ([2]; 40° C./75% RH, 2 weeks): No change | Change of the crystalline form ([2]; 60° C./75% RH, 2 weeks): No change | Stability, overall conclusion of the storage test [2]: good stability | MV, average particle size calculated by volume [3]: 68.84 μm | D10 [3]: 6.55 μm | D50 (median diameter) [3]: 41.10 μm | D90 [3]: 173.3 μm | Solubility ([4]; H2O, 24 h): 270 µg/mL (≈ 668 µM) | Solubility ([4]; SGF, 4 h): 1000 µg/mL (≈ 2470 µM) | Solubility ([4]; SGF, 24 h): 770 µg/mL (≈ 1900 µM) | solubility at 4 h ([4]; water, thermodynamic from solid, H2O, 4 h): 260 µg/mL (≈ 643 µM) | Form change under mechanical stress [5]: No form change
Compound: CC(C)Oc1ccc(-c2nc(-c3cccc4c3CC[C@@H]4NCCO)no2)cc1C#N [Form CS5, ozanimod]
Hygroscopicity class according to the definition of hygroscopicity [1]: slightly hygroscopic (Increase in mass is less than 2 percent and equal to or greater than 0.2 percent)
